This note sets out measurements from the NIST ThermoML archive (doi:10.1021/acs.jced.6b00957).

± gives the expanded uncertainty stated by the source.

A short description of data set [1]: Molar enthalpy of transition or fusion. Conditions: Crystal; DSC.
For data set [2] the following is noted: Crystal; DTA.

For `O=C(O)c1c(O)cccc1O` [2,6-dihydroxybenzoic acid], the “Molar enthalpy of transition or fusion” value in data set [1] came out at 6.05 ± 0.382 kcal/mol. The Normal melting temperature in data set [2] was determined as 167.1 ± 4 °C.
